Results taken from paper PMC8474116, “Discovery of Novel Acetamide-Based Heme Oxygenase-1 Inhibitors with Potent In Vitro Antiproliferative Activity” (Journal of Medicinal Chemistry, 2021).
Values after ≈ are worked out from the molar mass of the structure shown.

How the values were obtained:
HO-1 [1] = assay: HO-1 protein expression by Western blot, U87MG; assay type: cell-based, human; conditions: 10 μM, 48 h
Experimental: (§1) Proteins were extracted from total cell lysate, as previously described.[61] Briefly, cell lines were added to a buffer containing 20 mM Tris (pH 7.4), 2 mM EDTA, 0.5 mM EGTA, 50 mM mercaptoethanol, and […] sucrose supplemented with phosphatase and protease inhibitor cocktails (Roche Diagnostics, Monza, Italy). Subsequently, protein samples were sonicated twice for 20′ by using an ultrasonic probe, followed by centrifugation at 10 000g for 10 min at 4 °C. Sample proteins (30 μg) were diluted in 4X NuPage LDS sample buffer (Invitrogen, NP0007), heated at 80 °C for 5 min, and then separated on a Biorad Criterion XT 4–15% Bis–Tris gel (BIO-RAD) by electrophoresis and then transferred to a PVDF membrane (BIO-RAD). Blots were blocked using the Odyssey Blocking Buffer (LI-COR Biosciences) and probed with appropriate antibodies: HO-1 antibody (GeneTex GTX101147), goat polyclonal anti-VEGF (cat. no. sc-1836, Santa Cruz Biotechnology), and rabbit polyclonal anti-β-tubulin (cat n.sc-9104, Santa Cruz Biotechnology) and β-actin antibody (GeneTex GTX109639).
(§2) The secondary antibodies goat antirabbit (Odyssey, #926-32211; Odyssey #926-68021) and donkey antigoat IRDye 800CW (cat #926-32214; Li-Cor Biosciences) were used at 1:7000. Blots were scanned, and densitometric analysis was performed with the Odyssey Infrared Imaging System. Values were normalized to β-actin and to β-tubulin.

HO = HO enzymatic activity in U87MG cell line (cell lysate, bilirubin formation); assay type: cell-based, human; conditions: U87MG treated with 10 μM
Experimental: U87MG cells were incubated for 24 h in the presence or absence of 10 μM of compound 7l. Total HO activity in the cell lysate was determined by measuring the bilirubin formation using the difference in absorbance at 464–530 nm.[2] Reaction mixtures (500 μL) consisted of 20 mM of Tris–HCl, pH 7.4, 1 mg/mL of cell lysate, 0.5–2 mg/mL of biliverdin reductase, 1 mM of NADPH, 2 mM of glucose 6-phosphate (G6P), 1 U of G6P dehydrogenase, 25 μM of hemin, and 10 μL of DMSO. Incubations were carried out for 60 min at 37 °C in a circulating water bath in the dark. Reactions were stopped by adding 1 volume of chloroform. After recovering the chloroform phase, the amount of bilirubin formed was measured with a double-beam spectrophotometer as OD464–530 nm (extinction coefficient, 40 mM/cm for bilirubin). One unit of the enzyme was defined as the amount of enzyme catalyzing the formation of 1 nmol of bilirubin/mg protein/h.

H5V cells = assay: Tube formation assay, H5V endothelial cells with U87MG conditioned medium; assay type: cell-based, murine; conditions: H5V cells with CM2, medium from U87MG cultured with 10 μM, 48 h
Experimental: Subconfluent U87MG cell cultures were placed in media supplemented with 1% FBS (representing the conditioned medium 1 (CM1) or control) or containing 10 μM of 7l molecule (representing the conditioned medium 2 (CM2)) and incubated at 37 °C for 48 h. Subsequently, the CMs were collected and centrifuged at 2000 rpm for 5 min, and the supernatants were frozen at −80 °C until use. GeltrexTM reduced growth factor basement membrane matrix (Invitrogen) was thawed at 4 °C overnight before use. GeltrexTM matrix was added to a 24-well plate (95 μL/well) and then incubated at 37 °C for 30 min to allow polymerization. Murine microvascular endothelial cells (H5V) were starved overnight in the growth medium, and then the cells were seeded onto the layer of GeltrexTM matrix and cultured with 200 μL of CM1 and CM2 at 37 °C for 48 h. Three randomly selected fields of view were captured with a digital camera (Canon) connected to an inverted microscope (Axio Observer A1; Carl Zeiss, Göttingen, Germany). Tube numbers per field were calculated as the percentage of control.

U87MG cells = assay: Wound-healing assay, U87MG; assay type: cell-based, human; conditions: 10 μM, vs control at 24 and 48 h
Experimental: U87MG cells grown to confluence in 6-well dishes (5 × 10^4 cells/well) were scratched with a 200 μL pipette tip. Cells were cultured in a 1% serum medium with or without 10 μM of 7l. Quantitative assessment of the wound area was performed under an inverted microscope, as previously described.[63] The distance that the advancing cells had moved into the wound area was measured after 24 and 48 h. The migration was calculated as the average number of cells observed in three random of high-power wounded fields/per well in duplicate wells and expressed in percentage of control (% of control).

human CYP2D6 = target: T1, human CYP2D6 (Homo sapiens, UniProt P10635); assay: CYP2D6 inhibition (Eurofins); assay type: in vitro ADME
T1 construct: Eurofins Scientific (contract assay) 1338
T1 sequence (P10635 whole entry): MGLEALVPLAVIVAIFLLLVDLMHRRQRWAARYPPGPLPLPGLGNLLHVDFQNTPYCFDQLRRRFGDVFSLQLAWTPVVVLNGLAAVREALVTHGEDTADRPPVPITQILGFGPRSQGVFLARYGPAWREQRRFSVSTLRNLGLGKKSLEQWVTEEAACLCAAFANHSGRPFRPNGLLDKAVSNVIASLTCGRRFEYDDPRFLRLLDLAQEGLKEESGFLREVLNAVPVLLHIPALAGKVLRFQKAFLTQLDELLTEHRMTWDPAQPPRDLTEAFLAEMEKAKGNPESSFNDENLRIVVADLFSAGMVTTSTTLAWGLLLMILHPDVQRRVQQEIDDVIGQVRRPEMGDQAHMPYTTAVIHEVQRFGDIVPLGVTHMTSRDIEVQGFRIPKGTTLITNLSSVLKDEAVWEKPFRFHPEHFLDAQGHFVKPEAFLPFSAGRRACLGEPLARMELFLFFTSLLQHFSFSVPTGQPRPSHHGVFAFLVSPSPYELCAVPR
Excerpt: In vitro ADMET testing has been performed at Eurofins Scientific.

[2] = Bidirectional permeability (Caco-2); assay type: in vitro ADME; conditions: human
[3] = Aqueous solubility in simulated gastric fluid (Eurofins); assay type: physicochemical
Experimental: In vitro ADMET testing has been performed at Eurofins Scientific. Aqueous solubility in simulated gastric fluid (catalogue product number 2061), intrinsic clearance in liver microsome-human (catalogue product number 607), CYP2D6 and CYP3A4 inhibition (catalogue product numbers 1338 and 391, respectively), and hERG human potassium ion channel binding (catalogue product number 4094) were conducted at Eurofins following their experimental protocols (https://www.eurofins.com/).

HO-1 [4] = assay: HO-1 protein expression by Western blot, DU145; assay type: cell-based; conditions: DU145, 10 μM, 48 h
Experimental: as §1, §2

DU145 cells = assay: MTT cell viability assay, DU145; assay type: cell-based; conditions: 48 h, 1 μM and 10 μM
Experimental: Experiments were performed on human GBM cell lines U87MG (ATCCC number #HTB-14) and A172 (ATCCC #CRL-1620) on DU145 (ATCC HTB-81) and human lung adenocarcinoma A549 (ATCC CCL-185-LUC2). All cell lines were obtained from the American Type Culture Collection (ATCC, Rockville, MD). Cells were grown in Dulbecco’s modified Eagle’s medium (DMEM) supplemented with 10% of heat-inactivated fetal bovine serum (FBS), 100 U/mL of penicillin, and 100 μg/mL of streptomycin (Sigma-Aldrich, Steinheim, Germany). Cells were incubated at 37 °C in a humidified atmosphere with 5% CO2.
The effect of selected compounds 7i and 7l–p on cell viability was assessed by performing an MTT assay. Cells were seeded into 96-well plates at a density of 7 × 10^3 cells/well in 100 μL of culture medium. After 24 h, cells were treated with selected compounds at three different concentrations (1 μM, 10 μM, and 50 μM) for 48 h. Following treatments, 0.5 mg/mL of 3-[4,5-dimethylthiazol-2-yl]-2,5-diphenyltetrazolium bromide (MTT) (Sigma-Aldrich) was added to each well and incubated for 4 h at 37 °C. Finally, dimethyl-sulfoxide (DMSO) was used to dissolve formazan salts, and absorbance was measured at 570 nm in a microplate reader (Biotek Synergy-HT). Eight replicate wells were used for each group.

[5] = Caco-2, pH 6.5/7.4, tested concentration 10 μM

CN(C(=O)Cn1ccnc1)C(c1ccccc1)c1ccc(Cl)cc1 (stereo not drawn) [7l, N-((4-Chlorophenyl)(phenyl)methyl)-2-(1H-imidazol-1-yl)-N-methylacetamide]
HO-1 protein expression (in words) (HO-1 [1]): reduced HO-1 expression | HO enzymatic activity in cell lysates (in words) (HO): reduced HO activity | number of tube-like structures (in words) (H5V cells): significantly decreased | cell motility, wound-healing assay (in words) (U87MG cells): drastically reduced | IC50 (human CYP2D6): 2500 nM | efflux ratio at 10 μM ([2]; Caco-2, read-out: efflux ratio (Papp BA/Papp AB)): 0.44 | Papp A→B at 10 µM [2, 5]: 44.1 ×10⁻⁶ cm/s | Papp B→A at 10 µM [2, 5]: 19.4 ×10⁻⁶ cm/s | solubility [3]: 196 µM (≈ 66.5 µg/mL)

CN(C(=O)Cn1ccnc1)C(c1ccccc1)c1ccc(I)cc1 (stereo not drawn) [7n, 2-(1H-Imidazol-1-yl)-N-((4-iodophenyl)(phenyl)methyl)-N-methylacetamide]
HO-1 protein expression (in words) (HO-1 [1]): enhanced its levels | HO-1 protein expression (in words) (HO-1 [4]): reduced HO-1 protein expression

CN(C(=O)Cn1ccnc1)C(c1ccccc1)c1ccc(OCc2ccccc2)cc1 (stereo not drawn) [7o, N-((4-(Benzyloxy)phenyl)(phenyl)methyl)-2-(1H-imidazol-1-yl)-N-methylacetamide]
cell viability reduction (in words) (DU145 cells): had efficacies
